For series [1], the system named is Rgg2/3 quorum-sensing pathway (Pshp3-lux). The series is described as follows: Luminescence transcriptional reporter assay, Pshp3-lux. Type of series: cell-based, Streptococcus pyogenes. The note with it: WT NZ131 Pshp3-lux, CDM with 1% mannose and 0.05% glucose; 500 nM RI-10, 500 nM L10A or 10 mM MgSO4. (A reporter such as luciferase makes a cellular process visible.)

In series [2] the test system is PepO in intact cells, lysed cells or conditioned supernatants. The series is described as follows: Activity-based screening for PepO localization. Type of series: in vitro ADME, Streptococcus pyogenes. The note with it: 50 nM sSHP2-C8, intact cells, lysed cells or conditioned supernatants of ΔoppD shp2GGG shp3GGG pepO+ and pepO- cultures, 30 °C, 4 hours; read-out ΔpepO shp2GGGshp3GGG Pshp3-lux reporter.

Where no end group is shown, it is not given here.

For `O=S(=O)([O-])[O-].[Mg+2]` [Mg^2+, MgSO4], the “effect on Pshp3-lux induction in mannose-induced wild-type reporter” value in series [1] is “unlike cultures treated with the inactive L10A variant or Mg^2+”.
As to DILIIVGG [sSHP2-C8], in series [2], the “PepO-dependent degradation of SHP in cellular fractions” value is “found only in the cytoplasmic fraction”.

For the origin of these results see publication PMC4987125 (Molecular microbiology, 2015).
